From patent US11236120B2, “Azithromycin derivatives with epithelial barrier enhancement properties” (EpiEndo Pharmaceuticals ehf, priority 2015, dated 2022)
≈ marks a conversion by molar mass, not a printed value. Entries after “also recorded” stand apart in the source; their conditions may differ.

Key:
[1] = Stability in human plasma; type: in vitro ADME; settings: room temperature
Method: Stability in Mouse and Human Plasma
The stability of the compounds in mouse and human plasma was performed using protein precipitation as sample clean-up and HPLC-MS detection. The plasma stability studies of the compounds was performed at room temperature for up to 4 hours. A stock solution of […] in DMSO was prepared for each compound. For the plasma stability samples, 100 μL of the stock solution was diluted with 3.9 mL of either mouse or human plasma to a final concentration of […]. The plasma was left to equilibrate for 10 minutes at room temperature before the first analysis. For each analyzed time point ([…]) a 100 μL aliquot of the plasma was removed and protein precipitation (PPT) was performed on the aliquot by adding 900 μL of (ACN:DMSO) 95:5. The precipitated sample was shaken for 60 seconds and then centrifuged. The supernatant was transferred to an HPLC vial and analyzed using HPLC-MS. The chromatographic signal area of the samples at the different time points were then compared against each other, by setting the initial analysis at t=0 min as 100% and then calculating the %-value for each subsequent time point.
(§1) The chromatographic separation was performed on a Waters HPLC-MS system using a 50×2.1 mm×Bridge C18 column and a gradient elution of Water with 0.1% formic acid and acetonitrile with 0.1% formic acid. The analytes were analyzed in positive electro-spray mode using the (M+H)^+ in single ion recording.

[2] = Solubility in 10 mM phosphate buffer (pH 7.4); type: physicochemical; settings: pH 7.4, aqueous buffer, kinetic from dmso stock, 60 minutes at room temperature, filtered, read-out: MTS Solubility in Buffer (pH 7.4)
Method: Solubility in 10 mM Phosphate Buffer (pH 7.4)
The solubility sample testing of the compounds was performed by in phosphate buffer at pH 7.4 and using HPLC-MS detection. A stock solution of […] in DMSO was prepared for each compound. For the solubility test sample, 100 μL of the stock solution was diluted with 3.9 mL of a 10 mM phosphate buffer at […] to a final concentration of […]. The buffer solution was left to stand for 60 minutes at room temperature and then filtered. The filtrate was analyzed against two calibration points of the same analyte prepared at […] using HPLC-MS. These calibration points were prepared from the same stock solution as the solubility sample by diluting it with DMSO:H2O (1:1) 1:40 and then again 1:10. The chromatographic signal area of the analyte in the solubility sample was then compared to the chromatographic signal area of the two calibration samples.
as §1

[3] = test system: barrier integrity in the lungs of mice under sulphur dioxide insult; assay: Barrier integrity enhancement in the lung: HSA leakage into BAL after sulphur dioxide insult; type: in vivo
Method: The effect of compounds of the invention on maintenance of barrier integrity in the lungs of mice under sulphur dioxide insult was investigated.
1. 15 female mice were randomised into 3 groups of 5 mice. The three groups were: • a) Control group • b) Azithromycin treatment group • c) Investigational compound treatment group
2. The mice were pre-treated for three days with: • a) Placebo (Phosphate buffered saline—PBS) given at a dose of 10 mg/kg in an intravenous injection of 100 μl three times per week. • b) Azithromycin: given at a dose of 10 mg/kg in an intravenous injection of 100 μl three times per week. • c) The compound of Example 2: given at a dose of 10 mg/kg in an intravenous injection of 100 μl three times per week.
3. One mouse in each group was set to one side as a control. Four mice were then exposed to sulphur dioxide gas at a concentration of 200 ppm in air for a period of 60 minutes. The mice were in a cage that was inserted into a 45 L treatment box with a removable lid, a gas feed line and a gas exhaust vent. […] The gas was premixed from bottled air and bottled 200 ppm SO2 in a first box and then fed into the treatment box. The level of SO2 being fed into the treatment box can be varied by adjusting the relative flow of air and SO2 from the two source cylinders. As the sulphur dioxide concentration in this experiment was 200 ppm, it was used neat, with no additional air being mixed with it. The mice had access to food and water for the duration of the treatment.
4. 24 hours after the end of the treatment, 1 mg of human serum albumin (HSA) in 100 μl saline was injected into the tail vein of each mouse, and fluorescent dextrans (FDs) were injected into the airways. The mice were then kept sedated for 90 minutes.
5. After 90 minutes, the mice were sacrificed via exsanguination. Plasma and bronchoalveolar lavage (BAL) were collected and the lungs were processed for paraffin embedding.
6. The level of HSA in the BAL was quantified by ELISA. The ELISA test used was the one commercially available from abcam (Human Serum Albumin kit ab179887). In line with the kit manufacturer's instructions, absorbance at […] was measured. Fluorescent dextrans are quantified using a fluorescent plate reader.
The level of HSA that leaks into the lungs, as found in the BAL, is a measure of the integrity of the lung epithelial barrier.
In the placebo group, there were experimental difficulties with two of the four mice; in the Azithromycin group, there were experimental difficulties with one of the four mice; and in the investigational compound group, there were experimental difficulties with two of the four mice. Therefore, results were obtained from two mice in each of the placebo and investigational compound groups, and from three mice in the Azithromycin group.

[4] = test system: epithelial cells in vitro ALI culture; settings: cited from earlier work
[5] = test system: Mycobacterium avium complex (MAC); assay: Assay 2: STC colorimetric microplate assay, comparison over the Mycobacteria studied; type: cell-based; settings: all four strains of M. avium and M. intracellulare

CC[C@H]1OC(=O)[C@H](C)[C@@H](O)[C@H](C)[C@@H](O[C@@H]2O[C@H](C)C[C@H](N(C)C)[C@H]2OC(=O)c2ccccc2)[C@](C)(O)C[C@@H](C)CN(C)[C@H](C)[C@@H](O)[C@]1(C)O [Example 2]
Degradation in Human Plasma at RT [1]: Stable
solubility at 60 min [2]: 3.62 µM (≈ 2.52 µg/mL)
HSA level - absorbance at 600 nm ([3]; HSA in BAL by ELISA, mice, 10 mg/kg intravenous, 200 ppm SO2 for 60 minutes): 0.373 ± 0.037
leakage of HSA into the lung following SO2 insult ([3]; compared with control, FIG. 1): reduced compared with the control; also recorded: reduced compared with a control
HSA level - absorbance at 600 nm relative to control ([3]; relative to PBS control, mice, 10 mg/kg intravenous, 200 ppm SO2 for 60 minutes): 0.640 ± 0.058

CC[C@H]1OC(=O)[C@H](C)[C@@H](O[C@H]2C[C@@](C)(OC)[C@@H](O)[C@H](C)O2)[C@H](C)[C@@H](O[C@@H]2O[C@H](C)C[C@H](N(C)C)[C@H]2O)[C@](C)(O)C[C@@H](C)C(=O)[C@H](C)[C@@H](O)[C@]1(C)O [Erythromycin]
effect on transepithelial resistance (TER) and cellular processing of tight junctions [4]: not to exhibit similar effects

CC[C@H]1OC(=O)[C@H](C)[C@@H](O[C@H]2C[C@@](C)(OC)[C@@H](O)[C@H](C)O2)[C@H](C)[C@@H](O[C@@H]2O[C@H](C)C[C@H](N(C)C)[C@H]2O)[C@](C)(OC)C[C@@H](C)C(=O)[C@H](C)[C@@H](O)[C@]1(C)O [Clarithromycin]
sensitivity of the MAC strains used [5]: sensitive

penicillin
effect on transepithelial resistance (TER) and cellular processing of tight junctions [4]: not to exhibit similar effects
